Substitutions are numbered along the chain they refer to. “And” between values parts separate entries of the source, which are not always exact repeats. Equal values may be shown once.
Legend:
recombinant rat WT CAC = target: T1, recombinant rat WT CAC (Rattus norvegicus, UniProt P97521); experiment: [3H]-carnitine/carnitine antiport in proteoliposomes with recombinant rat WT CAC; type: biochemical
T1 construct: made in house; host or cells: E. coli C0214 (pMW7, inclusion bodies)
T1 sequence (P97521 1-301): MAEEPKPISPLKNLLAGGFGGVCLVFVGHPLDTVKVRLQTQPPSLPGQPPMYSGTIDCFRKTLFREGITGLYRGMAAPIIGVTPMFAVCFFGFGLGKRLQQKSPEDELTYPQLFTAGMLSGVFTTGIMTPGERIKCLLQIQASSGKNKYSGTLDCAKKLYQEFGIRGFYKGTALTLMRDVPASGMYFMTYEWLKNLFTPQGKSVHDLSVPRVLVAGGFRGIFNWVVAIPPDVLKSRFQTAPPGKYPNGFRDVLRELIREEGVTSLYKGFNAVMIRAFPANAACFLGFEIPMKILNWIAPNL
Method: To shed light on the interaction between PAT and CAC and verify if specific Cys residues were involved, transport experiments on the recombinant rat and human WT CAC and CAC’s rat Cys mutants were performed. As in the case of the native protein, transport activities were measured as [^3H]-carnitine/carnitine antiport in proteoliposomes. […] The PAT inhibition of the WT recombinant protein was only slightly greater compared to the native protein, although compounds and other molecular systems that affect the mycotoxin binding to the native CAC were absent (see above). For identifying the residues involved in the PAT interaction, site-directed Cys mutants were tested for inhibition (Figure 2). […] The choice of this last mutant was due to the proximity of C155 to C136 during some steps of the substrate translocation mechanism. […] To confirm the main role played by C136 in the carrier PAT-induced impairment, the single mutant C155S and the mutant containing only C136 residue (C23V/C58V/C89S/C155V/C283S) were examined (Figure 2). […] Finally, no effect of the mycotoxin was observed on the C-less mutant (C23V/C58V/C89S/C136V/C155V/C283S), definitively excluding the participation of other residues in the interaction with PAT.
Figure 2 Dose-response analysis of the PAT inhibition of the CAC recombinant proteins. […] The data are expressed as a percentage of the controls (no PAT addition) and are means ± SD of three independent experiments.
The pMW7-WT rat or human CAC recombinant plasmids were used for over-expressing the rat and human CAC, as previously described. To introduce the mutations on the rat CAC recombinant plasmid, the overlap extension method was used as described, introducing the NdeI and HindIII restriction sites. The PCR products were purified using the QIAEX II Gel Extraction Kit (QIAGEN, Hilden, Germany), digested with NdeI and HindIII, and then ligated into the pMW7. All mutations were verified by DNA sequencing. The resulting plasmid constructs were transformed into E. coli C0214. Overexpression, inclusion body fraction preparation, and purification of the CAC proteins were performed as previously described.
The recombinant CAC proteins were reconstituted in proteoliposomes as previously described. […]
(§1) For the transport assay, 550 μL of proteoliposomes were passed through a Sephadex G-75 column in order to remove the external substrate. […] After finishing the transport reaction, the external radiolabel substrate was removed by gel filtration chromatography (Sephadex G-75), and the intraliposomal radioactivity was measured by liquid scintillation. Transport was measured at 25 °C. […] Transport rates were measured in 10 min, i.e., within the initial linear range of the time course.

rat CAC mutant C136S = target: T2, rat CAC mutant C136S (Rattus norvegicus, UniProt P97521, C136S); experiment: Carnitine antiport in proteoliposomes, CAC mutant C136S; type: biochemical
T2 construct: made in house; host or cells: E. coli C0214 (pMW7, inclusion bodies)
T2 sequence (P97521 1-301 C136S): T1 sequence (P97521 1-301) with C136S
Method: To shed light on the interaction between PAT and CAC and verify if specific Cys residues were involved, transport experiments on the recombinant rat and human WT CAC and CAC’s rat Cys mutants were performed. As in the case of the native protein, transport activities were measured as [^3H]-carnitine/carnitine antiport in proteoliposomes. […] The PAT inhibition of the WT recombinant protein was only slightly greater compared to the native protein, although compounds and other molecular systems that affect the mycotoxin binding to the native CAC were absent (see above). For identifying the residues involved in the PAT interaction, site-directed Cys mutants were tested for inhibition (Figure 2). […]
Figure 2 Dose-response analysis of the PAT inhibition of the CAC recombinant proteins. […] The data are expressed as a percentage of the controls (no PAT addition) and are means ± SD of three independent experiments. […]
as §1

O=C1C=C2C(=CCOC2O)O1 (centres unmarked) [PAT, 4-hydroxy-4H-furo [3,2c] pyran-2 [6H] -one]
reversal of inhibition by DTE (recombinant rat WT CAC; 50 μM PAT 30 min, 5 mM DTE, recombinant WT): not reversed | substrate protection: effect of carnitine on PAT inhibition (recombinant rat WT CAC; carnitine 0.5 and 10 mM added before 50 μM PAT): partially prevented | type of inhibition (recombinant rat WT CAC; protein form not specified): competitive | IC50 (recombinant rat WT CAC; rat recombinant WT, PAT 30 min, read-out: IC50 of CAC WT inhibition): 47 µM and ~50 µM | IC50 (rat CAC mutant C136S): not possible to detect

Source: publication PMC9917099, “The Mycotoxin Patulin Inhibits the Mitochondrial Carnitine/Acylcarnitine Carrier (SLC25A20) by Interaction with Cys136 Implications for Human Health” (International Journal of Molecular Sciences, 2023)
